{
  "source": "patent US8299111B2",
  "about": "“Compounds which modulate the CB2 receptor” (Boehringer Ingelheim International GmbH, priority 2006, dated 2012)",
  "data": [
    {"target": "T1, human CB2R (Homo sapiens, UniProt P34972)", "T1 construct": "host or cells: CHO cells", "T1 sequence (P34972 whole entry)": "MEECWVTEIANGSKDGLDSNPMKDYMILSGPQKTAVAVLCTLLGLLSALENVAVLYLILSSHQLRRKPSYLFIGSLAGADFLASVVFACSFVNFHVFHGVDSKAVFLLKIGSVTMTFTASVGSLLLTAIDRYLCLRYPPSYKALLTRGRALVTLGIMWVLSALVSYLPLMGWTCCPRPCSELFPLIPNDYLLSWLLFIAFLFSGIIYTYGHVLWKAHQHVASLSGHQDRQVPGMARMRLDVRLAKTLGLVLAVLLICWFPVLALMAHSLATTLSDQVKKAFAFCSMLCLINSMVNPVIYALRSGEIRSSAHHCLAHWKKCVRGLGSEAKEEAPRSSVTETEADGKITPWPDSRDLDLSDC", "test": "CB2R mediated modulation of cAMP synthesis", "assay_type": "cell-based", "conditions": "found through the use of the above described assays (binding and cAMP); CHO cells expressing human CB2R, forskolin-stimulated cAMP", "experimental": "B. CB2R Mediated Modulation of cAMP Synthesis:\nCHO cells expressing human CB2R (Euroscreen) were plated at a density of 5000 cells per well in 384 well plates and incubated overnight at 37° C. After removing the media, the cells were treated with test compounds diluted in stimulation buffer containing 1 mM IBMX, 0.25% BSA and 10 uM Forskolin. The assay was incubated for 30 minutes at 37° C. Cells were lysed and the cAMP concentration was measured using DiscoverX -XS cAMP kit, following the manufacturer's protocol. In this setting, agonists will decrease forskolin induced production of cAMP while inverse agonists will further increase forskolin induced production of cAMP. EC50 of agonists were calculated as follows. The maximal amount of cAMP produced by forskolin compared to the level of cAMP inhibited by 1 uM CP55940 is defined as 100%. The EC50 value of each test compound was determined as the concentration at which 50% of the forskolin-stimulated cAMP synthesis was inhibited. Data was analyzed using a four-parameter logistic model. (Model 205 of XLfit 4.0).", "values": [
      {"smiles": "CC(C)(C)Cc1cc(NC(=O)C(C)(C)S(=O)(=O)c2ccc(Cl)cc2)on1", "agonistic activity": "agonistic activity"},
      {"smiles": "CC(C)(C)c1cc(NC(=O)C(C)(C)S(=O)(=O)c2ccc[n+]([O-])c2)no1", "agonistic activity": "agonistic activity"},
      {"smiles": "Cc1nc(NC(=O)C2(S(=O)(=O)c3ccc(Cl)cc3)CCC2)sc1C(C)(C)C", "note": "[1-(4-Chloro-benzenesulfonyl)-cyclobutanecarboxylic acid (5-tert-butyl-4-methyl-thiazol-2-yl)-amide]", "agonistic activity": "agonistic activity"},
      {"smiles": "CC(C)(C)c1cc(NC(=O)C2(S(=O)(=O)c3ccc(Cl)cc3)CCC2)no1", "note": "[1-(4-Chloro-benzenesulfonyl)-cyclobutanecarboxylic acid (5-tert-butyl-isoxazol-3-yl)-amide]", "agonistic activity": "agonistic activity"},
      {"smiles": "CC(C)(C)c1cnc(NC(=O)C2(S(=O)(=O)c3ccc(Cl)cc3)CCC2)s1", "note": "[1-(4-Chloro-benzenesulfonyl)-cyclobutanecarboxylic acid (5-tert-butyl-thiazol-2-yl)-amide]", "agonistic activity": "agonistic activity"},
      {"smiles": "Cn1nc(-c2ccccc2)cc1NC(=O)C1(S(=O)(=O)c2ccc(Cl)cc2)CC1", "note": "[1-(4-Chloro-benzenesulfonyl)-cyclopropanecarboxylic acid (2-methyl-5-phenyl-2H-pyrazol-3-yl)-amide]", "agonistic activity": "agonistic activity"},
      {"smiles": "CC(C)(C)c1csc(NC(=O)C2(S(=O)(=O)c3ccc(Cl)cc3)CC2)n1", "note": "[1-(4-Chloro-benzenesulfonyl)-cyclopropanecarboxylic acid (4-tert-butyl-thiazol-2-yl)-amide]", "agonistic activity": "agonistic activity"},
      {"smiles": "O=C(Nc1cc(C(F)(F)F)ccn1)C1(S(=O)(=O)c2ccc(Cl)cc2)CC1", "note": "[1-(4-Chloro-benzenesulfonyl)-cyclopropanecarboxylic acid (4-trifluoromethyl-pyridin-2-yl)-amide]", "agonistic activity": "agonistic activity"},
      {"smiles": "Cn1nc(C(C)(C)C)cc1NC(=O)C1(S(=O)(=O)c2ccc(Cl)cc2)CC1", "note": "[1-(4-Chloro-benzenesulfonyl)-cyclopropanecarboxylic acid (5-tert-butyl-2-methyl-2H-pyrazol-3-yl)-amide]", "agonistic activity": "agonistic activity"},
      {"smiles": "CC(C)(C)c1cc(NC(=O)C2(S(=O)(=O)c3ccc(Cl)cc3)CC2)[nH]n1", "note": "[1-(4-Chloro-benzenesulfonyl)-cyclopropanecarboxylic acid (5-tert-butyl-2H-pyrazol-3-yl)-amide]", "agonistic activity": "agonistic activity"},
      {"smiles": "Cc1nc(NC(=O)C2(S(=O)(=O)c3ccc(Cl)cc3)CC2)sc1C(C)(C)C", "note": "[1-(4-Chloro-benzenesulfonyl)-cyclopropanecarboxylic acid (5-tert-butyl-4-methyl-thiazol-2-yl)-amide]", "agonistic activity": "agonistic activity"},
      {"smiles": "CC(C)(C)c1cc(NC(=O)C2(S(=O)(=O)c3ccc(Cl)cc3)CC2)no1", "note": "[1-(4-Chloro-benzenesulfonyl)-cyclopropanecarboxylic acid (5-tert-butyl-isoxazol-3-yl)-amide]", "agonistic activity": "agonistic activity"},
      {"smiles": "O=C(Nc1ccc(C(F)(F)F)cn1)C1(S(=O)(=O)c2ccc(Cl)cc2)CC1", "note": "[1-(4-Chloro-benzenesulfonyl)-cyclopropanecarboxylic acid (5-trifluoromethyl-pyridin-2-yl)-amide]", "agonistic activity": "agonistic activity"},
      {"smiles": "Cc1nc(NC(=O)C2(S(=O)(=O)c3ccc(C(F)(F)F)cc3)CCC2)sc1C(C)(C)C", "note": "[1-(4-Trifluoromethyl-benzenesulfonyl)-cyclobutanecarboxylic acid (5-tert-butyl-4-methyl-thiazol-2-yl)-amide]", "agonistic activity": "agonistic activity"},
      {"smiles": "CC(C)(C)c1cc(NC(=O)C2(S(=O)(=O)c3ccc(C(F)(F)F)cc3)CCC2)no1", "note": "[1-(4-Trifluoromethyl-benzenesulfonyl)-cyclobutanecarboxylic acid (5-tert-butyl-isoxazol-3-yl)-amide]", "agonistic activity": "agonistic activity"},
      {"smiles": "CC(C)(C)c1cnc(NC(=O)C2(S(=O)(=O)c3ccc(C(F)(F)F)cc3)CCC2)s1", "note": "[1-(4-Trifluoromethyl-benzenesulfonyl)-cyclobutanecarboxylic acid (5-tert-butyl-thiazol-2-yl)-amide]", "agonistic activity": "agonistic activity"},
      {"smiles": "CC(C)(C)c1csc(NC(=O)C2(S(=O)(=O)c3ccc(C(F)(F)F)cc3)CC2)n1", "note": "[1-(4-Trifluoromethyl-benzenesulfonyl)-cyclopropanecarboxylic acid (4-tert-butyl-thiazol-2-yl)-amide]", "agonistic activity": "agonistic activity"},
      {"smiles": "O=C(Nc1cc(C(F)(F)F)ccn1)C1(S(=O)(=O)c2ccc(C(F)(F)F)cc2)CC1", "note": "[1-(4-Trifluoromethyl-benzenesulfonyl)-cyclopropanecarboxylic acid (4-trifluoromethyl-pyridin-2-yl)-amide]", "agonistic activity": "agonistic activity"},
      {"smiles": "Cn1nc(C(C)(C)C)cc1NC(=O)C1(S(=O)(=O)c2ccc(C(F)(F)F)cc2)CC1", "note": "[1-(4-Trifluoromethyl-benzenesulfonyl)-cyclopropanecarboxylic acid (5-tert-butyl-2-methyl-2H-pyrazol-3-yl)-amide]", "agonistic activity": "agonistic activity"},
      {"smiles": "Cc1nc(NC(=O)C2(S(=O)(=O)c3ccc(C(F)(F)F)cc3)CC2)sc1C(C)(C)C", "note": "[1-(4-Trifluoromethyl-benzenesulfonyl)-cyclopropanecarboxylic acid (5-tert-butyl-4-methyl-thiazol-2-yl)-amide]", "agonistic activity": "agonistic activity"},
      {"smiles": "CC(C)(C)c1cc(NC(=O)C2(S(=O)(=O)c3ccc(C(F)(F)F)cc3)CC2)no1", "note": "[1-(4-Trifluoromethyl-benzenesulfonyl)-cyclopropanecarboxylic acid (5-tert-butyl-isoxazol-3-yl)-amide]", "agonistic activity": "agonistic activity"},
      {"smiles": "O=C(Nc1ccc(C(F)(F)F)cn1)C1(S(=O)(=O)c2ccc(C(F)(F)F)cc2)CC1", "note": "[1-(4-Trifluoromethyl-benzenesulfonyl)-cyclopropanecarboxylic acid (5-trifluoromethyl-pyridin-2-yl)-amide]", "agonistic activity": "agonistic activity"},
      {"smiles": "O=C(Nc1cccc(C(F)(F)F)n1)C1(S(=O)(=O)c2ccc(C(F)(F)F)cc2)CC1", "note": "[1-(4-Trifluoromethyl-benzenesulfonyl)-cyclopropanecarboxylic acid (6-trifluoromethyl-pyridin-2-yl)-amide]", "agonistic activity": "agonistic activity"},
      {"smiles": "Cn1nc(-c2ccccc2)cc1NC(=O)C(C)(C)S(=O)(=O)c1ccc(F)cc1F", "note": "[2-(2,4-Difluoro-benzenesulfonyl)-2-methyl-N-(2-methyl-5-phenyl-2H-pyrazol-3-yl)-propionamide]", "agonistic activity": "agonistic activity"},
      {"smiles": "CC(C)(C(=O)Nc1nc(-c2ccccn2)cs1)S(=O)(=O)c1ccc(F)cc1F", "note": "[2-(2,4-Difluoro-benzenesulfonyl)-2-methyl-N-(4-pyridin-2-yl-thiazol-2-yl)-propionamide]", "agonistic activity": "agonistic activity"},
      {"smiles": "CC(C)(C(=O)Nc1nc(-c2cccnc2)cs1)S(=O)(=O)c1ccc(F)cc1F", "note": "[2-(2,4-Difluoro-benzenesulfonyl)-2-methyl-N-(4-pyridin-3-yl-thiazol-2-yl)-propionamide]", "agonistic activity": "agonistic activity"},
      {"smiles": "CC(C)(C(=O)Nc1cccc2ccccc12)S(=O)(=O)c1ccc(F)cc1F", "note": "[2-(2,4-Difluoro-benzenesulfonyl)-2-methyl-N-naphthalen-1-yl-propionamide]", "agonistic activity": "agonistic activity"},
      {"smiles": "CC(C)(C(=O)Nc1cnc2ccccc2c1)S(=O)(=O)c1ccc(F)cc1F", "note": "[2-(2,4-Difluoro-benzenesulfonyl)-2-methyl-N-quinolin-3-yl-propionamide]", "agonistic activity": "agonistic activity"},
      {"smiles": "CC(C)(C(=O)Nc1cc2ccccc2cn1)S(=O)(=O)c1ccc(F)cc1F", "note": "[2-(2,4-Difluoro-benzenesulfonyl)-N-isoquinolin-3-yl-2-methyl-propionamide]", "agonistic activity": "agonistic activity"},
      {"smiles": "CC(C)(C(=O)Nc1ccc(C(F)(F)F)cn1)S(=O)(=O)c1cc(F)ccc1F", "note": "[2-(2,5-Difluoro-benzenesulfonyl)-2-methyl-N-(5-trifluoromethyl-pyridin-2-yl)-propionamide]", "agonistic activity": "agonistic activity"},
      {"smiles": "CC(C)(C(=O)Nc1cccc(C(F)(F)F)n1)S(=O)(=O)c1cc(F)ccc1F", "note": "[2-(2,5-Difluoro-benzenesulfonyl)-2-methyl-N-(6-trifluoromethyl-pyridin-2-yl)-propionamide]", "agonistic activity": "agonistic activity"},
      {"smiles": "Cc1ccc(S(=O)(=O)C(C)(C)C(=O)Nc2ccc(C(F)(F)F)cn2)c(F)c1", "note": "[2-(2-Fluoro-4-methyl-benzenesulfonyl)-2-methyl-N-(5-trifluoromethyl-pyridin-2-yl)-propionamide]", "agonistic activity": "agonistic activity"},
      {"smiles": "CC(C)(C(=O)Nc1ccc(C(F)(F)F)cn1)S(=O)(=O)c1ccccc1F", "note": "[2-(2-Fluoro-benzenesulfonyl)-2-methyl-N-(5-trifluoromethyl-pyridin-2-yl)-propionamide]", "agonistic activity": "agonistic activity"},
      {"smiles": "COc1ccc(S(=O)(=O)C(C)(C)C(=O)Nc2ccc(C(F)(F)F)cn2)cc1F", "note": "[2-(3-Fluoro-4-methoxy-benzenesulfonyl)-2-methyl-N-(5-trifluoromethyl-pyridin-2-yl)-propionamide]", "agonistic activity": "agonistic activity"},
      {"smiles": "COc1ccc(S(=O)(=O)C(C)(C)C(=O)Nc2cccc(C(F)(F)F)n2)cc1F", "note": "[2-(3-Fluoro-4-methoxy-benzenesulfonyl)-2-methyl-N-(6-trifluoromethyl-pyridin-2-yl)-propionamide]", "agonistic activity": "agonistic activity"},
      {"smiles": "Cc1ccc(S(=O)(=O)C(C)(C)C(=O)Nc2ccc(C(F)(F)F)cn2)cc1F", "note": "[2-(3-Fluoro-4-methyl-benzenesulfonyl)-2-methyl-N-(5-trifluoromethyl-pyridin-2-yl)-propionamide]", "agonistic activity": "agonistic activity"}
    ]}
  ]
}
